According to paper PMC8789663 (The Journal of Biological Chemistry, 2021):
Values belong to the compound of their own block, whether it stands above or below them.

Experiments:
rat islets [1] = assay: Perifusion assay of rat islet GSIS, step-wise glucose increase 2.8 to 16.7 mM; conditions: for block of potentiation of GSIS by GLP-1, PKC inhibitors: 10 µM; for block of potentiation of GSIS by GLP-1 (1 nM), PLC inhibitor or negative control: 1 µM, pretreatment for 40 min; for effect of PLC inhibitor or negative control alone on GSIS: 1 µM in Fig. S2; for potentiation of first and second phase GSIS by cyclic nucleotide analog prodrug: 10 μM, representative of six independent experiments
[2] = molecular target: endogenous rat GLP-1 receptor (rat (endogenous in INS-1 832/13 cells and rat islets)) (UniProt P32301)
islets = conditions: raising levels of cAMP; cited from earlier work
Description: Identifying the mechanism for this switch from cAMP-independent to cAMP-dependent insulin secretion is of great interest. Shibasaki et al. ([33]) reported a cAMP-regulated mechanism of insulin secretion that results from “restless newcomer” exocytosis in which Epac2 activation mobilizes cytoplasmic secretory granules so that they quickly transit to the plasma membrane for release without pausing in a “docked” state. When islets are stimulated with glucose alone, this newcomer exocytosis is more prominent during first-phase as compared with second-phase GSIS. Raising levels of cAMP by treatment ...

rat islets [3] = assay: Perifusion assay of rat islet GSIS, linear glucose gradient; type: cell-based, Sprague–Dawley rat
rat perfused pancreas = conditions: ref 11 (Moens et al.); cited from earlier work
mouse islets = conditions: cited from earlier work
GLP-1R = conditions: cited from earlier work
GcgR = conditions: cited from earlier work
β-cell GSIS = conditions: cited from earlier work
Description: (§1) A selective effect is possible based on our previous report that the cAMP antagonist prodrug Rp-8-Br-cAMPS-pAB abolished first-phase but not second-phase GSIS in response to glucose alone ([25]).

Epac = conditions: read-out: IC50, block of GLP-1-stimulated cAMP (H188); INS-1 832/13 cells transduced with H188, GLP-1 stimulated
PKA [4] = system: T1, PKA; assay: Live-cell FRET assay (435 nm excitation, 485/535 emission ratio, pH 7.4) with PKA substrate reporter AKAR3; inhibition of PKA activity stimulated by GLP-1.; type: cell-based, INS-1 832/13 cells transduced with AKAR3; conditions: n = 12
T1 construct: endogenous PKA, read out indirectly with FRET reporter AKAR3 (PKA substrate)

Epac1 and Epac2 = conditions: unconjugated Rp-8-Br-cAMPS; cited from earlier work
Description: as §1

PKA [5] = conditions: unconjugated Rp-8-Br-cAMPS; cited from earlier work
Description: as §1

[6] = Rp-8-Br-cAMPS-pAB 10 μM, five independent experiments

endogenous rat GLP-1 receptor (rat (endogenous in INS-1 832/13 cells and rat islets)), sequence (P32301 22-463): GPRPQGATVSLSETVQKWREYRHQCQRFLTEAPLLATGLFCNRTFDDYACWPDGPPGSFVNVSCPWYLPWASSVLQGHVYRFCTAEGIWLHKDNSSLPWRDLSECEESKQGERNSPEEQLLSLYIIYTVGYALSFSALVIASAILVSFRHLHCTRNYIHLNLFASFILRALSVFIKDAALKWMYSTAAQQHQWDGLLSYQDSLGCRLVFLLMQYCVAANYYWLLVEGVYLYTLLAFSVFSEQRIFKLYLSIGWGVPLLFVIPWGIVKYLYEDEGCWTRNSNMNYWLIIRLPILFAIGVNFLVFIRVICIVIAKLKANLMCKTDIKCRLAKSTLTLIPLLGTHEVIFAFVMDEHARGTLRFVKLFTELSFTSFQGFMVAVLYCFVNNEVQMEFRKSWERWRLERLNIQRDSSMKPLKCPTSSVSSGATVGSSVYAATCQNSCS

Compound: Cn1cc(C2=C(c3cn(CCCSC(=N)N)c4ccccc34)C(=O)NC2=O)c2ccccc21 [Ro 31-8220]
block of potentiation of GSIS by GLP-1, PKC inhibitors (rat islets [1]): failed to block

Compound: CN(C)C[C@@H]1CCn2cc(c3ccccc32)C2=C(C(=O)NC2=O)c2cn(c3ccccc23)CCO1 [LY 333531]
block of potentiation of GSIS by GLP-1, PKC inhibitors (rat islets [1]): failed to block

PKA activity (AKAR3 FRET reporter) in INS-1 832/13 cells [2]: 88 pM
rise of cAMP (H188 FRET reporter) in INS-1 832/13 cells [2]: 1.9 nM
Compound: GLP-1[7-36]amide (ligand)

Compound: C=C[C@@]1(C)CC(=O)[C@]2(O)[C@@]3(C)[C@@H](O)CCC(C)(C)[C@@H]3[C@H](O)[C@H](OC(C)=O)[C@@]2(C)O1 [forskolin]
newcomer exocytosis during first-phase (islets): potentiates
newcomer exocytosis during second-phase (islets): greatly increasing

Compound: COc1ccc2c(c1)CC[C@@H]1[C@@H]2CC[C@]2(C)[C@@H](NCCCCCCN3C(=O)CCC3=O)CC[C@@H]12 [U73343]
block of potentiation of GSIS by GLP-1 (1 nM), PLC inhibitor or negative control (rat islets [1]; GLP-1 1 nM): failed to block
effect of PLC inhibitor or negative control alone on GSIS (rat islets [1]): not reproduced

Compound: des-His^1-Glu^9-glucagon
effect on glucagon-potentiated GSIS in the gradient assay (rat islets [3]; des-His1-Glu9-glucagon 3 µM vs glucagon 10 nM, single experiment): not inhibited
effect on GSIS stimulated by a glucose gradient alone (rat islets [3]; des-His1-Glu9-glucagon 3 µM, single experiment): failed to inhibit
insulin secretion in response to glucose alone, perfused rat pancreas (rat perfused pancreas): not reduced

Compound: COc1ccc2c(c1)CC[C@@H]1[C@@H]2CC[C@]2(C)[C@@H](NCCCCCCN3C(=O)C=CC3=O)CC[C@@H]12 [U73122]
block of potentiation of GSIS by GLP-1 (1 nM), PLC inhibitor or negative control (rat islets [1]; GLP-1 1 nM): failed to block
effect of PLC inhibitor or negative control alone on GSIS (rat islets [1]): potentiated GSIS

Compound: COc1ccc2cc(-c3cc(-c4cc(Cl)cc(Cl)c4)nn3[C@@H](C)c3ccc(C(=O)NCCC(=O)O)cc3)ccc2c1 [MK0893]
glucagon-stimulated insulin secretion from mouse islets (mouse islets): inhibit
action at the GLP-1R (GLP-1R): antagonizes
glucagon action at the GcgR (GcgR): antagonizes

Compound: CC(=O)Oc1ccc(CSP2(=O)OC[C@H]3O[C@@H](n4c(Br)nc5c(N)ncnc54)[C@H](O)[C@@H]3O2)cc1 (some centres unmarked) [Rp-8-Br-cAMPS-pAB]
effect on first-phase GSIS in response to glucose alone (β-cell GSIS): abolished
effect on second-phase GSIS in response to glucose alone (β-cell GSIS): not
IC50 (Epac): 1400 nM
effect on glucagon-potentiated GSIS in the gradient assay (rat islets [3]; Rp-8-Br-cAMPS-pAB 10 μM vs glucagon 10 nM): blocked
effect on GSIS stimulated by a glucose gradient alone (rat islets [3]; Rp-8-Br-cAMPS-pAB 10 μM, three independent experiments): failed to inhibit
antagonist action versus 5 nM GLP-1 in comparison with 1 nM GLP-1 (rat islets [1]; Rp-8-Br-cAMPS-pAB 10 μM): weaker
block of potentiation of GSIS by glucagon (rat islets [1]; Rp-8-Br-cAMPS-pAB 10 μM vs 10 nM glucagon, three independent experiments): blocked
block of potentiation of first and second phase GSIS by GLP-1 (rat islets [1]; Rp-8-Br-cAMPS-pAB 10 μM vs GLP-1 5, 1, and 0.1 nM): blocked
effect on second-phase GSIS in the presence of GLP-1 (rat islets [1]; Rp-8-Br-cAMPS-pAB 10 μM, GLP-1 1 nM): greatly reduced the amplitude of second-phase GSIS
effect on first-phase GSIS in response to glucose alone (rat islets [1]; [6]): blocked first-phase GSIS
effect on second-phase GSIS in response to glucose alone (rat islets [1]; [6]): little ability to reduce second-phase GSIS

Compound: CC(=O)OCOP1(=O)OCC2OC(n3cnc4c(NC(=O)c5ccccc5)ncnc43)C(O)C2O1 (centres unmarked) [6-Bnz-cAMP-AM]
potentiation of first and second phase GSIS by cyclic nucleotide analog prodrug (rat islets [1]): potentiated

Compound: CC(=O)Oc1ccc(CSP2(=O)OC[C@H]3O[C@@H](n4c(Br)nc5c(N)ncnc54)[C@H](O)[C@@H]3O2)cc1 (some centres unmarked) [Rp-8-Br-cAMPS-pAB, Rp-8-Br-cAMPS para-acetoxybenzyl (pAB) ester; membrane-permeable prodrug bioactivated by cytosolic esterases to Rp-8-Br-cAMPS]
IC50 (PKA [4]): 2800 nM

Compound: Nc1ncnc2c1nc(Br)n2C1OC2COP(O)(=S)OC2C1O (centres unmarked) [Rp-8-Br-cAMPS]
inhibition of stimulatory effects of endogenous cAMP at Epac1 and Epac2 (Epac1 and Epac2): competitively inhibits
inhibition of stimulatory effects of endogenous cAMP at PKA (PKA [5]): competitively inhibits

Compound: CO[C@@H]1[C@@H]2OP(=O)(OCOC(C)=O)OC[C@H]2O[C@H]1n1c(Sc2ccc(Cl)cc2)nc2c(N)ncnc21 (some centres unmarked) [8-pCPT-2′-O-Me-cAMP-AM]
potentiation of first and second phase GSIS by cyclic nucleotide analog prodrug (rat islets [1]): potentiated
